The nature of data set [1]: in vitro. Particulars: for Analyte Peak/IS Peak Ares (Mean), T60-blood / Analyte Peak/IS Peak Ares (Mean), T60-plasma: 60 min; for Analyte Peak/IS Peak Ares (Mean), T60-blood / Analyte Peak/IS Peak Ares (Mean), T60-plasma / Analyte Peak/IS Peak Ares (Mean), T0: 2 μM; for Analyte Peak/IS Peak Ares (Mean), T0: 0 min. The method, then: All working solutions were freshly prepared similarly as described for the test article working solution.
Assay for determining Blood to plasma ratio: Pooled male CD-1 mouse, Sprague-Dawley rat, beagle dog and cynomolgus monkey plasma, and mixed gender human blood with EDTAK2 as anticoagulant were stored on wet ice and used the same day. […] After mixing thoroughly, 0.6 mL of spiked blood was transferred to a 96-well plate in triplicate. Concurrently, control compounds were spiked into each species blood in the same fashion to generate the final concentration of 2.0 μM.
The rest of the spiked blood samples were immediately placed into a humidified incubator with 5% CO2 at 37° C., with constant swiveling at 500 rpm for 60 min on a platform shaker. […] The T60-plasma samples for analysis were obtained by taking 50 μL of plasma from each well, mixed with 50 μL of blank blood and 100 μL of water, followed by addition of 600 μL stop solution. […] All the T0, T60-blood and T60-plasma samples were shaken vigorously at 800 rpm for 30 min followed by the centrifugation at 3220×g at 20° C. for 20 min. 100 μL aliquot of supernatant was diluted with 100 μL of water and mixed well for LC-MS/MS analysis.
Measurement of Hematocrit: The hematocrit (the volume percentage of erythrocytes in blood) was determined in triplicate for each species by centrifuging the blood samples with a HAEMATOKRIT 200 at 9440×g for 5 min.
Data analysis: The ratio of compound concentrations in whole blood over plasma (KB/P) and % Recovery in blood were calculated by the following equations: KB/P=[…]([T60-blood]/[T60-plasma]), where [T60-blood] is the peak area ratios of analyte/internal standard in whole blood sample at 60 min; [T60-plasma] is the peak area ratios of analyte/internal standard in plasma sample at 60 min; [T0-blood] is the peak area ratios of analyte/internal standard in whole blood sample at time zero.

The next data set addresses CYP2C9 (Homo sapiens, UniProt P11712). The note with it: 20 min, 6 μM, pH 7.4.
Data set [2] can be described thus: CYP Control (negative control without CYP enzymes) in hrCYP reaction phenotyping. The note with it: S-mephenytoin 20 μM, metabolite 4′ - OH Mephenytoin.
Data set [3] is described as follows: cell batch quality control, BCRP-MDCK monolayers. Particulars: dog; BCRP-MDCK cell batch QC; passage 23. It counts as in vitro ADME. The method, then:
BCRP-MDCK cell monolayers were prepared at Absorption Systems. […] Each determination was performed in duplicate.

The nature of data set [4]: in vitro. Particulars: dog, MDCK-MDR1, pH 7.4.
A short description of data set [5]: metabolic stability in cryopreserved hepatocytes. It counts as in vitro ADME, human. The note with it: both sexes, pH 7.4; Human cryopreserved hepatocytes; positive control 1 μM. The method, then: (§1) Mixed-gender human cryopreserved hepatocytes, male Sprague-Dawley rat cryopreserved hepatocytes, male CD-1 mouse cryopreserved hepatocytes, male beagle dog cryopreserved hepatocytes, and male cynomolgus monkey cryopreserved hepatocytes were used for the study. The hepatocytes were thawed, pooled into Krebs Henseleit buffer (KHB, pH 7.4), and kept on ice prior to the experiments. […] Each experiment was performed in triplicate. The final DMSO content in the incubation mixture was ≤0.1%. […] Positive controls, testosterone (1 μM) and 7-hydroxycoumarin (7-HC) (100 μM), were performed in parallel to confirm the activity of the hepatocytes. […] Aliquots of testosterone were withdrawn (n=1) at 0, 5, 15, 30, 60, and 120 minutes. Aliquots of 7-HC were withdrawn (n=1) at 0 and 15 minutes. The reaction was immediately terminated by adding three volumes of ice-cold MeCN containing IS. The samples were then mixed and spun by centrifuge to precipitate proteins. An aliquot of the supernatant was then diluted with water. Calibration standards for the analysis of 7-HC metabolites were prepared in matched matrix. […] All samples were analyzed by LC-MS/MS. The peak area response ratio (PARR) vs. IS was compared to the PARR at time 0 to determine the percent remaining at each time point. Half-lives and clearance values were calculated using GraphPad software, fitting to a single-phase exponential decay equation.
(§2) Mixed-gender human cryopreserved hepatocytes, male Sprague-Dawley rat cryopreserved hepatocytes, male CD-1 mouse cryopreserved hepatocytes, male beagle dog cryopreserved hepatocytes, and male cynomolgus monkey cryopreserved hepatocytes were thawed and pooled into KHB buffer (pH 7.4) and kept on ice prior to the experiments. […] Each experiment was performed in triplicate. The final DMSO content in the incubation mixture was ≤0.1%.
(§3) Positive controls, testosterone (1 μM) and 7-hydroxycoumarin (7-HC) (100 μM), were performed in parallel to confirm the activity of the hepatocytes. […] Aliquots of testosterone were withdrawn (n=1) at 0, 5, 15, 30, 60, and 120 minutes. Aliquots of 7-HC were withdrawn (n=1) at 0 and 15 minutes. The reaction was immediately terminated by adding three volumes of ice-cold MeCN containing IS. The samples were then mixed and spun by centrifuge to precipitate proteins. An aliquot of the supernatant was then diluted with water. Calibration standards for the analysis of 7-HC metabolites were prepared in matched matrix. […] All samples were analyzed by LC-MS/MS. Analytical conditions are outlined below. The peak area response ratio (PARR) vs. IS was compared to the PARR at time 0 to determine the percent remaining at each time point. Half-lives and clearance values were calculated using GraphPad software, fitting to a single-phase exponential decay equation.

A further data set deals with human hepatocytes. Kind of data set: metabolic stability in cryopreserved hepatocytes. It counts as in vitro ADME. The note with it: Human cryopreserved hepatocytes; positive control, 1 μM. On the procedure:
as §1, §2, §3

Data set [6] in a line: metabolic stability in cryopreserved hepatocytes. It counts as in vitro ADME, rat. The note with it: Rat cryopreserved hepatocytes. On the procedure:
as §1, §2, §3

Data set [7] can be described thus: metabolic stability in cryopreserved hepatocytes. It counts as in vitro ADME, mouse. The note with it: Mouse cryopreserved hepatocytes. On the procedure:
as §1, §2, §3

A short description of data set [8]: metabolic stability in cryopreserved hepatocytes. It counts as in vitro ADME, dog. Particulars: Dog cryopreserved hepatocytes. On the procedure:
Mixed-gender human cryopreserved hepatocytes, male Sprague-Dawley rat cryopreserved hepatocytes, male CD-1 mouse cryopreserved hepatocytes, male beagle dog cryopreserved hepatocytes, and male cynomolgus monkey cryopreserved hepatocytes were used for the study. The hepatocytes were thawed, pooled into Krebs Henseleit buffer (KHB, pH 7.4), and kept on ice prior to the experiments. […] Each experiment was performed in triplicate. The final DMSO content in the incubation mixture was ≤0.1%. […] Aliquots of testosterone were withdrawn (n=1) at 0, 5, 15, 30, 60, and 120 minutes. Aliquots of 7-HC were withdrawn (n=1) at 0 and 15 minutes. The reaction was immediately terminated by adding three volumes of ice-cold MeCN containing IS. The samples were then mixed and spun by centrifuge to precipitate proteins. An aliquot of the supernatant was then diluted with water. Calibration standards for the analysis of 7-HC metabolites were prepared in matched matrix. […] All samples were analyzed by LC-MS/MS. The peak area response ratio (PARR) vs. IS was compared to the PARR at time 0 to determine the percent remaining at each time point. Half-lives and clearance values were calculated using GraphPad software, fitting to a single-phase exponential decay equation.
as §2
Aliquots of testosterone were withdrawn (n=1) at 0, 5, 15, 30, 60, and 120 minutes. Aliquots of 7-HC were withdrawn (n=1) at 0 and 15 minutes. The reaction was immediately terminated by adding three volumes of ice-cold MeCN containing IS. The samples were then mixed and spun by centrifuge to precipitate proteins. An aliquot of the supernatant was then diluted with water. Calibration standards for the analysis of 7-HC metabolites were prepared in matched matrix. […] All samples were analyzed by LC-MS/MS. Analytical conditions are outlined below. The peak area response ratio (PARR) vs. IS was compared to the PARR at time 0 to determine the percent remaining at each time point. Half-lives and clearance values were calculated using GraphPad software, fitting to a single-phase exponential decay equation.

Data set [9] in a line: metabolic stability in cryopreserved hepatocytes. It counts as in vitro ADME, cynomolgus monkey. The note with it: Monkey cryopreserved hepatocytes. The method, then: as §1, §2, §3
In the next data set the target is CYP1A2 (Homo sapiens, UniProt P05177). Particulars: 20 min, 50 μM, pH 7.4.
[10] abbreviates: male, CD-1, pH 7.4, positive control 1 μM.
Where [11] appears, read: male, beagle, pH 7.4, positive control 1 μM.

Read-outs that look alike come from different tables or passages of the source.

The source of these data is patent US20230049952A1, “METHODS AND COMPOUNDS FOR RESTORING MUTANT P53 FUNCTION” (PMV Pharmaceuticals, Inc., priority 2020, published 2023).

Chain of CYP1A2 (P05177 whole entry): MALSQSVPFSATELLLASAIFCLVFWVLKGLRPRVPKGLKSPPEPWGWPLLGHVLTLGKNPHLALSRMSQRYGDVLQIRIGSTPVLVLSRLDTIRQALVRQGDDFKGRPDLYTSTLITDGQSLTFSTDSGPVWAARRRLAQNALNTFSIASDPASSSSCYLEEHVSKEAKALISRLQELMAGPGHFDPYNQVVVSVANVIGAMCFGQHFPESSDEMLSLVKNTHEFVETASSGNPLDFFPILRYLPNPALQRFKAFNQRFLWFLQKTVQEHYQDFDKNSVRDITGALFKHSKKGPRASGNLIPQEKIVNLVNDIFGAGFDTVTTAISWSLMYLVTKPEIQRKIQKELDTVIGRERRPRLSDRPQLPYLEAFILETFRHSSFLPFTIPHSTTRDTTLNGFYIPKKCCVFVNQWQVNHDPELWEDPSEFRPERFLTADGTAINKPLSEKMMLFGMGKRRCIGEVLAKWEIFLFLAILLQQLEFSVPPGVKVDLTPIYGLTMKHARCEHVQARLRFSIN
Chain of CYP2C9 (P11712 whole entry): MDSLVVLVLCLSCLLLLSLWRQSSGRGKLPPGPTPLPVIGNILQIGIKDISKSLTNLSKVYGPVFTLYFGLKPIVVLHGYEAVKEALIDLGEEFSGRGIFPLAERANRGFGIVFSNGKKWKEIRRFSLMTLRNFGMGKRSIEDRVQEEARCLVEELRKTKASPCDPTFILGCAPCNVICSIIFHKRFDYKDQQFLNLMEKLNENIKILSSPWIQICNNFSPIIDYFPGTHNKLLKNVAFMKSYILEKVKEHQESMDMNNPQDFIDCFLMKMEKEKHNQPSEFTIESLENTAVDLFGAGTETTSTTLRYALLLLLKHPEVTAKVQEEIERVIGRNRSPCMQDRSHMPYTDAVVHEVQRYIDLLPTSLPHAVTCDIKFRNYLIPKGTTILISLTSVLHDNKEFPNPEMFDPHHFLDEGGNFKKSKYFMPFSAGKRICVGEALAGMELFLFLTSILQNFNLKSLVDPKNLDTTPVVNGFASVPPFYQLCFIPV

For the compound `O=C(O)Cc1ccccc1Nc1c(Cl)cccc1Cl` [Diclofenac], in “in vitro [1]” (both, human), the recovery at 60 min, 2 μM worked out at 91.2 ± 4.43%; the “Analyte Peak/IS Peak Ares (Mean), T60-blood” value was found to be 0.311; the “Analyte Peak/IS Peak Ares (Mean), T60-plasma” value came out at 0.473. In “in vitro [1]” (male, CD-1, mouse), the recovery at 60 min, 2 μM turned out to be 100 ± 6.79%; the “Analyte Peak/IS Peak Ares (Mean), T60-blood” value was 0.365; the “Analyte Peak/IS Peak Ares (Mean), T60-plasma” value came to 0.501. Also, in “in vitro [1]” (male, Sprague-Dawley, rat), the recovery at 60 min, 2 μM came to 100 ± 3.45%; the “Analyte Peak/IS Peak Ares (Mean), T0” value amounted to 0.330; the “Analyte Peak/IS Peak Ares (Mean), T60-blood” value turned out to be 0.331; the “Analyte Peak/IS Peak Ares (Mean), T60-plasma” value was 0.480. In “in vitro [1]” (male, beagle, dog), the recovery at 60 min, 2 μM was determined as 104 ± 1.36%; the “Analyte Peak/IS Peak Ares (Mean), T0” value was 0.301; the “Analyte Peak/IS Peak Ares (Mean), T60-blood” value was found to be 0.313; the “Analyte Peak/IS Peak Ares (Mean), T60-plasma” value is 0.484. Further, in the data set “in vitro [1]” (male, cynomolgus monkey), the recovery at 60 min, 2 μM worked out at 101 ± 8.23%; the “Analyte Peak/IS Peak Ares (Mean), T0” value was 0.314; the “Analyte Peak/IS Peak Ares (Mean), T60-blood” value turned out to be 0.318; the “Analyte Peak/IS Peak Ares (Mean), T60-plasma” value is 0.513. Also, at CYP2C9, the “Formation Rate” value is 650 pmol metabolite/min/mg Supersome protein and the “Measured Metabolite” value stood at 0.676 µM.
Turning to `CC[C@@]1(c2ccccc2)NC(=O)N(C)C1=O` [S-mephenytoin], in data set [2], the “Formation Rate” value is 0 pmol metabolite/min/mg Supersome protein and the “Measured Metabolite” value was 0 µM.
As usually defined, the Papp is the rate of passage across a membrane or cell layer, normalised by area and donor concentration. As to `CC(C)NCC(O)COc1cccc2ccccc12` (stereo not shown) [Propranolol], in data set [3], the Papp amounted to 20.1 ×10⁻⁶ cm/s. In the data set “in vitro [4]”, this compound showed a Papp at 120 min of 20.3 ×10⁻⁶ cm/s.
For orientation: half-life means the time needed for the level to fall by half in the phase considered. What is called hepatocyte CLint is the capacity of the preparation to metabolise the compound, expressed as a volume cleared per time. Consider `C[C@]12CC[C@H]3[C@@H](CCC4=CC(=O)CC[C@@]43C)[C@@H]1CC[C@@H]2O` [testosterone], for which the half-life worked out at 4.28 min in [5]; 1.14 min in data set [6] (positive control, 1 μM); 1.14 min in data set [6] (male, Sprague-Dawley, pH 7.4, positive control 1 μM, read-out: Half-life); 2.55 min in data set [7] (setting [10]); 6.88 min in data set [8] (setting [11]); 3.08 min in [9] (positive control 1 μM). Besides, the half-life in data set [9] (positive control, 1 μM) is listed as 3.08 min. In addition, the hepatocyte CLint in [5] amounted to 108 µL/min/1e6 cells; in data set [6] (male, Sprague-Dawley, pH 7.4, positive control 1 μM) it was 405 µL/min/1e6 cells; in data set [7] (setting [10]), 181 µL/min/1e6 cells; in data set [8] (setting [11]), 67.2 µL/min/1e6 cells; in [9] (male, pH 7.4, positive control 1 μM) it was 150 µL/min/1e6 cells. Moreover, the CLint was 0.108 mL/min/10^6 cells in the data set with human hepatocytes; 0.405 mL/min/10^6 cells in data set [6] (positive control, 1 μM); 0.181 mL/min/10^6 cells in [7] (positive control, 1 μM); 0.0672 mL/min/10^6 cells in data set [8] (positive control, 1 μM); 0.150 mL/min/10^6 cells in data set [9] (positive control, 1 μM).
`CCOc1ccc(NC(C)=O)cc1` [Phenacetin]: on CYP1A2, the “Formation Rate” value is listed as 1819 pmol metabolite/min/mg Supersome protein and the “Measured Metabolite” value came to 3.71 µM.
